Data taken from patent US10647747B2, “Cyclosporin derivatives and uses thereof” (S&T Global Inc., priority 2010, dated 2020).

These compounds were tested on HCV replicon in cell line ET (luc-ubi-neo/ET), Huh7 human hepatoma (assay: HCV subgenomic replicon assay, luciferase end point). Conditions: HCV subgenomic replicon, cell line ET (luc-ubi-neo/ET) Huh7, luciferase end point; read-out: Antiviral activity EC50.
Assay type: cell-based

Row | SMILES | EC50 [nM]
1 | C/C=C/C[C@@H](C)[C@@H](O)[C@H]1C(=O)N[C@@H](CC)C(=O)N(C)[C@H](COCCN(C)C)C(=O)N(C)[C@@H](CC(C)(C)OC)C(=O)N[C@@H](C(C)C)C(=O)N(C)[C@@H](CC(C)C)C(=O)N[C@@H](C)C(=O)N[C@H](C)C(=O)N(C)[C@@H](CC(C)C)C(=O)N(C)[C@@H](CC(C)C)C(=O)N(C)[C@@H](C(C)C)C(=O)N1C | 150
2 | CC=CCC(C)C(O)C1C(=O)NC(CC)C(=O)N(C)C(COCCN(C)C)C(=O)N(C)C(CC(C)(C)O)C(=O)NC(C(C)C)C(=O)N(C)C(CC(C)C)C(=O)NC(C)C(=O)NC(C)C(=O)N(C)C(CC(C)C)C(=O)N(C)C(CC(C)C)C(=O)N(C)C(C(C)C)C(=O)N1C (stereo not shown) | 240
3 | CC=CCC(C)C(O)C1C(=O)NC(CC)C(=O)N(C)C(COCCCN(CC)CC)C(=O)N(C)C(CC(C)(C)O)C(=O)NC(C(C)C)C(=O)N(C)C(CC(C)C)C(=O)NC(C)C(=O)NC(C)C(=O)N(C)C(CC(C)C)C(=O)N(C)C(CC(C)C)C(=O)N(C)C(C(C)C)C(=O)N1C (stereo not shown) | 180
4 | CC=CCC(C)C(O)C1C(=O)NC(CC)C(=O)N(C)C(COCCCN(CC)CC)C(=O)N(C)C(CC(C)(C)OC)C(=O)NC(C(C)C)C(=O)N(C)C(CC(C)C)C(=O)NC(C)C(=O)NC(C)C(=O)N(C)C(CC(C)C)C(=O)N(C)C(CC(C)C)C(=O)N(C)C(C(C)C)C(=O)N1C (stereo not shown) | 100
5 | C/C=C/C[C@@H](C)[C@@H](O)[C@H]1C(=O)N[C@@H](CC)C(=O)N(C)[C@H](COCCCN(C)C)C(=O)N(C)[C@@H](CC(C)(C)O)C(=O)N[C@@H](C(C)C)C(=O)N(C)[C@@H](CC(C)C)C(=O)N[C@@H](C)C(=O)N[C@H](C)C(=O)N(C)[C@@H](CC(C)C)C(=O)N(C)[C@@H](CC(C)C)C(=O)N(C)[C@@H](C(C)C)C(=O)N1C | 260
6 | CC=CCC(C)C(O)C1C(=O)NC(CC)C(=O)N(C)C(CSCCN2CCN(C)CC2)C(=O)N(C)C(CC(C)(C)O)C(=O)NC(C(C)C)C(=O)N(C)C(CC(C)C)C(=O)NC(C)C(=O)NC(C)C(=O)N(C)C(CC(C)C)C(=O)N(C)C(CC(C)C)C(=O)N(C)C(C(C)C)C(=O)N1C (stereo not shown) | 90
7 | CC=CCC(C)C(O)C1C(=O)NC(CC)C(=O)N(C)C(CSCCN2CCCCC2)C(=O)N(C)C(CC(C)(C)O)C(=O)NC(C(C)C)C(=O)N(C)C(CC(C)C)C(=O)NC(C)C(=O)NC(C)C(=O)N(C)C(CC(C)C)C(=O)N(C)C(CC(C)C)C(=O)N(C)C(C(C)C)C(=O)N1C (stereo not shown) | 80
8 | CC=CCC(C)C(O)C1C(=O)NC(CC)C(=O)N(C)C(CSCCN2CCCC2)C(=O)N(C)C(CC(C)(C)O)C(=O)NC(C(C)C)C(=O)N(C)C(CC(C)C)C(=O)NC(C)C(=O)NC(C)C(=O)N(C)C(CC(C)C)C(=O)N(C)C(CC(C)C)C(=O)N(C)C(C(C)C)C(=O)N1C (stereo not shown) | 110
9 | CC=CCC(C)C(O)C1C(=O)NC(CC)C(=O)N(C)C(CSCCCN2CCOCC2)C(=O)N(C)C(CC(C)(C)OC)C(=O)NC(C(C)C)C(=O)N(C)C(CC(C)C)C(=O)NC(C)C(=O)NC(C)C(=O)N(C)C(CC(C)C)C(=O)N(C)C(CC(C)C)C(=O)N(C)C(C(C)C)C(=O)N1C (stereo not shown) | 100
10 | CC=CCC(C)C(O)C1C(=O)NC(CC)C(=O)N(C)C(CSCCCN2CCCCC2)C(=O)N(C)C(CC(C)(C)O)C(=O)NC(C(C)C)C(=O)N(C)C(CC(C)C)C(=O)NC(C)C(=O)NC(C)C(=O)N(C)C(CC(C)C)C(=O)N(C)C(CC(C)C)C(=O)N(C)C(C(C)C)C(=O)N1C (stereo not shown) | 50
11 | CC=CCC(C)C(O)C1C(=O)NC(CC)C(=O)N(C)C(CSCCCN2CCCC2)C(=O)N(C)C(CC(C)(C)OC)C(=O)NC(C(C)C)C(=O)N(C)C(CC(C)C)C(=O)NC(C)C(=O)NC(C)C(=O)N(C)C(CC(C)C)C(=O)N(C)C(CC(C)C)C(=O)N(C)C(C(C)C)C(=O)N1C (stereo not shown) | 100
12 | CC=CCC(C)C(O)C1C(=O)NC(CC)C(=O)N(C)C(CSCCCN2CCCC2)C(=O)N(C)C(CC(C)(C)O)C(=O)NC(C(C)C)C(=O)N(C)C(CC(C)C)C(=O)NC(C)C(=O)NC(C)C(=O)N(C)C(CC(C)C)C(=O)N(C)C(CC(C)C)C(=O)N(C)C(C(C)C)C(=O)N1C (stereo not shown) | 100
13 | CC=CCC(C)C(O)C1C(=O)NC(CC)C(=O)N(C)C(CSCCCN2CCCCC2)C(=O)N(C)C(CC(C)(C)OC)C(=O)NC(C(C)C)C(=O)N(C)C(CC(C)C)C(=O)NC(C)C(=O)NC(C)C(=O)N(C)C(CC(C)C)C(=O)N(C)C(CC(C)C)C(=O)N(C)C(C(C)C)C(=O)N1C (stereo not shown) | 60
